Experimental data as given in the NIST ThermoML archive (doi:10.1016/j.fluid.2010.07.011).

Assay: xn = mol fraction of the nth substance listed
Settings: 101.33 kPa, Liquid, Vibrating tube method

CCCCO [butan-1-ol] + CCCCCCN
x1 = 1
Settings | mass density [kg/m3]
288.15 K | 813.373
293.15 K | 809.573
298.15 K | 805.762
303.15 K | 801.923
308.15 K | 798.053
313.15 K | 794.147
318.15 K | 790.231
323.15 K | 786.238

CCCCCCN [1-hexanamine] + CCCCO
mass density [kg/m3]
Settings | 288.15 K | 293.15 K | 298.15 K | 303.15 K | 308.15 K | 313.15 K | 318.15 K | 323.15 K
x2 = 0 | 768.637 | 764.385 | 760.128 | 755.856 | 751.573 | 747.276 | 742.962 | 738.636
x2 = 0.0503 | 771.284 | 767.06 | 762.826 | 758.576 | 754.314 | 750.035 | 745.737 | 741.427
x2 = 0.1108 | 774.579 | 770.381 | 766.172 | 761.947 | 757.705 | 753.444 | 749.165 | 744.868
x2 = 0.1615 | 777.172 | 772.994 | 768.799 | 764.593 | 760.366 | 756.118 | 751.85 | 747.565
x2 = 0.2004 | 779.327 | 775.161 | 770.98 | 766.783 | 762.567 | 758.331 | 754.072 | 749.795
x2 = 0.2455 | 781.707 | 777.556 | 773.386 | 769.201 | 764.996 | 760.77 | 756.52 | 752.247
x2 = 0.3004 | 784.53 | 780.391 | 776.235 | 772.062 | 767.867 | 763.651 | 759.41 | 755.147
x2 = 0.4 | 789.735 | 785.619 | 781.483 | 777.33 | 773.155 | 768.956 | 764.732 | 760.481
x2 = 0.4802 | 793.847 | 789.75 | 785.637 | 781.501 | 777.345 | 773.162 | 768.953 | 764.717
x2 = 0.6294 | 800.788 | 796.75 | 792.692 | 788.612 | 784.508 | 780.377 | 776.215 | 772.02
x2 = 0.6999 | 803.655 | 799.656 | 795.637 | 791.594 | 787.526 | 783.429 | 779.299 | 775.138
x2 = 0.75 | 805.487 | 801.517 | 797.53 | 793.517 | 789.481 | 785.41 | 781.306 | 777.172
x2 = 0.7997 | 807.332 | 803.397 | 799.441 | 795.46 | 791.45 | 787.411 | 783.336 | 779.228
x2 = 0.8495 | 808.927 | 805.024 | 801.1 | 797.154 | 793.178 | 789.169 | 785.123 | 781.043
x2 = 0.8994 | 810.567 | 806.697 | 802.808 | 798.893 | 794.95 | 790.973 | 786.956 | 782.9
x2 = 0.9504 | 812.092 | 808.261 | 804.406 | 800.528 | 796.618 | 792.674 | 788.687 | 784.663
